The record followed here is publication PMC3138742 (PLoS ONE, 2011).

Assay [1] deals with EGFR phosphorylation in NIH3T3-EGFR T790M/L858R cells. The assay is described as follows: Western blot of EGFR phosphorylation. The class given is cell-based. The settings on record: 6 h, immunoblotting. As to the method:
Cell viability was determined using sulforhodamine B assay. IC50 values were determined based on the results of three independent experiments. […] Whole-cell lysates were assayed for total EGFR and phosphorylation of EGFR by immunoblotting. […] Cell viability was determined using sulforhodamine B assay.

Assay [2] has as its system Calu-3 xenograft. The assay is described as follows: Human tumor xenograft model, tumor growth. The settings on record: nude mice, p.o. twice daily. The class given is in vivo. As to the method:
(§1) The mice were housed and maintained under specific-pathogen free (SPF) conditions. All animal procedures were performed according to the protocol approved by the Institutional Animal Care and Use Committee at Shanghai Institute of Materia Medica, Chinese Academy of Sciences (SIMM-AE-DJ-2010-01). Under sterile conditions, well-developed tumors were cut into 1-mm^3 fragments and transplanted s.c. into the right flank of nude mice using a trocar. When the tumor reached a volume reached 100 to 200 mm^3, the mice were randomly assigned into control and treatment groups. […] The sizes of the tumors were measured twice per week using microcalipers. The tumor volume (V) was calculated as follows: V = (length×width^2)/2. The body weights of the mice were observed simultaneously.

Assay [3] has as its system SK-OV-3 xenograft. The assay is described as follows: Human tumor xenograft model, tumor growth. The class given is in vivo. The settings on record: nude mice, p.o. twice daily. Here is the method: as §1
The target of assay [4] is ErbB2 (Homo sapiens, UniProt P04626). In words: Rapid dilution irreversibility experiment. The class given is biochemical. Also on record: The kinase domain of EGFR, ErbB-2, IGF1R, VEGFR2, FGFR1, PDGFRα, c-Src, c-Met, RON, c-Kit, EphA2 and EphB2 were expressed; made in house. The settings on record: preincubated 30 min at 100-fold IC50, diluted 100-fold, sampled 180 minutes. As to the method: The microplate was placed in the EZ Reader (Caliper Life Sciences, MA) and wells were repeatedly sampled for 180 minutes.
To verify this, we determined the reversibility of EGFR and ErbB2 binding using a dilution method. […] After incubating, the enzyme/inhibitor mixture is diluted 100-fold (i.e., to normal reaction conditions), reaction buffer plus ATP and substrate are added, and receptor kinase activity is measured continuously. In general, a reversible inhibitor dissociates quickly, allowing immediate recovery of enzymatic activity, whereas a slowly reversible inhibitor allows a gradual increase in activity. In contrast, an irreversible inhibitor prevents recovery of enzymatic activity.

ErbB2, sequence (P04626 720-987 limits assumed): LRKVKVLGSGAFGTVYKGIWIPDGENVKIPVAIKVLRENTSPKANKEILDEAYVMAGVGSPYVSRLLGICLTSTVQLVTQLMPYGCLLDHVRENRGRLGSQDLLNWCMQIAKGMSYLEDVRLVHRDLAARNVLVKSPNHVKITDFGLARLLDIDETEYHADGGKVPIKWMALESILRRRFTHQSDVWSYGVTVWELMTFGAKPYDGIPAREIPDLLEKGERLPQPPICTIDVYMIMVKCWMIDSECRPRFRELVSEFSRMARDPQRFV

As for `CS(=O)(=O)CCNCc1ccc(-c2ccc3ncnc(Nc4ccc(OCc5cccc(F)c5)c(Cl)c4)c3c2)o1` [lapatinib, reference compound], in assay [1], the “inhibition of EGFR phosphorylation” value is recorded as “much weaker inhibitory effect”. For the same compound, the tumor growth entry in assay [2] and in assay [3] was “exhibited antitumor activity” in each case. Also, the “recovery of ErbB2 enzymatic activity after dilution” value in assay [4] is recorded as “slow recovery of the enzymatic activity”.
